# From ChEMBL document CHEMBL1146397, “Isolation and structure determination of sulfonoquinovosyl dipalmitoyl glyceride, a P-selectin receptor inhibitor from the alga Dictyochloris fragrans” (J Nat Prod, 1997)
# The source made the active and inactive calls. The rule behind the calls is not given here.
# How the values were obtained:
# Type in all cases: cell-based
# P-selectin = target: T1, P-selectin (Homo sapiens, UniProt P16109); test: (§1) Displacement of immobilized sulfatide from P-selectin transfected in african green monkey COS cells by IgG-based competitive ELISA
# T1 sequence (P16109 whole entry): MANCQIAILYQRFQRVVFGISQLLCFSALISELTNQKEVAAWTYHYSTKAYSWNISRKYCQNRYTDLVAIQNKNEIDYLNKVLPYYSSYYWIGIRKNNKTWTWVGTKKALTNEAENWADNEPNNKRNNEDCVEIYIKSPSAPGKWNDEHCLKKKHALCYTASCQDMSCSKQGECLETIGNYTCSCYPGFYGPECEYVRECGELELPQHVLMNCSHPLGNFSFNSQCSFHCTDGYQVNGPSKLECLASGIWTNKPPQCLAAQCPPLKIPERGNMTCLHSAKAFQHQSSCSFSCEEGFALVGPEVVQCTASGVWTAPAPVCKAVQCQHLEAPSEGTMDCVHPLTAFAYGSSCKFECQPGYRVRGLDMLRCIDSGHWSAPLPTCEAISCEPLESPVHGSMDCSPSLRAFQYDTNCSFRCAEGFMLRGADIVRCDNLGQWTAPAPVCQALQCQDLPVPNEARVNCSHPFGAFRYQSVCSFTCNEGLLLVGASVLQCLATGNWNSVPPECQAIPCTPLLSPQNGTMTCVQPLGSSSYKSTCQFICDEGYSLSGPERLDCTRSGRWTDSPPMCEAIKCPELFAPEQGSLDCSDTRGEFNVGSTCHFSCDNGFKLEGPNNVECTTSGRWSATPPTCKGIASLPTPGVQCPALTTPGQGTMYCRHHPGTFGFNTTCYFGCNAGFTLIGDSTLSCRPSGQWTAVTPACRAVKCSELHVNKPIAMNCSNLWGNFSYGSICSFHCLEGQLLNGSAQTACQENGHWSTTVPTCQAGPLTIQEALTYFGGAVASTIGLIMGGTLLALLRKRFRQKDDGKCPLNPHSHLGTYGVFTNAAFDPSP
# [1] = target: T2, P-selectin (Homo sapiens) (UniProt P16109); test: Inhibition of human P-selectin-dependent adhesion of activated platelets to HL60 cells after 30 mins by flow cytometry; details: HL-60
# T2 sequence (whole entry): T1 sequence (P16109 whole entry)
# [2] = Inhibition of human P-selectin receptor globulin adhesion to HL60 cells; details: HL-60
# [3] = target: T2, P-selectin (Homo sapiens); test: as §1
IC50 (P-selectin) [µM],inhibition [1] [%],IC50 [2] [µM],Compound,Activity [3]
1,0,–,CCCCC/C=C/C/C=C/CCCCCCCC(=O)OC(COC(=O)CCCCCCCCCCCCCCC)COP(=O)(O)OCC(O)CO (stereo unspecified) [PHOSPHATIDYL GLYCEROL],–
5,24,40,CCCCCCCCCCCCCCCC(=O)OCC(CO[C@H]1O[C@H](CS(=O)(=O)O)[C@@H](O)[C@H](O)[C@H]1O)OC(=O)CCCCCCCCCCCCCCC (stereo partly specified) [SULFONOQUINOVOSYL DIPALMITOYL GLYCERIDE],–
–,–,–,CCCCCCCCCCCCCC(=O)OCC(COP(=O)(O)OCCN)OC(=O)CCCCCCCCCCCCC (stereo unspecified),inactive
